Measured values: article PMC6735221, “A phase Ib dose-finding, pharmacokinetic study of the focal adhesion kinase inhibitor GSK2256098 and trametinib in patients with advanced solid tumours” (British Journal of Cancer, 2019)
Like-named read-outs stand apart in the source and are kept apart here.

What was measured:
mesothelioma = test system: mesothelioma; design: method as in PMID 27733373; details: GSK2256098 monotherapy, phase I; cited from earlier work
[1] = test system: Merlin-negative (encoded by NF-2) mesothelioma cells; design: method as in doi:10.1016/S0959-8049(12)72185-8; details: preclinical studies; cited from earlier work
[2] = Adverse events (CTCAE v4.0) in patients; details: diarrhoea, lower respiratory tract infection, nausea, vomiting
Experimental: (§2) AEs were assessed throughout the study using the National Cancer Institute Common Terminology Criteria for Adverse Events v4.0 guidelines.[13]
(§3) Haematology and clinical chemistry laboratory tests were performed at baseline, Days 1, 8, 15, 22, 29, and every 4 weeks thereafter. Electrocardiograms were performed at baseline, Days 1, 15, 22, and then every 8 weeks from Day 1.

[3] = GSK2256098 pharmacokinetics, whole blood, Day 15; assay type: in vivo, human; details: for Cmax: read-out: Cmax, Geometric mean (%CV); for Tmax: read-out: tmax, Median (range)
Experimental: (§1) Approximately 15 μL blood was then transferred from the “end-to-end” EDTA capillary tube onto the Whatman FTA DBS card.

[4] = GSK2256098 pharmacokinetics, dry blood spot, Day 15; assay type: in vivo; details: human, oral; for Cmax: read-out: Cmax, Geometric mean (%CV); for Tmax: read-out: tmax, Median (range)
Experimental: as §1

[5] = test system: human carboxylesterases (eg, hCES1b, hCES1c, and hCES2); design: method as in GSK data on file; details: in vitro investigation; ref GSK data on file; cited from earlier work
[6] = human, in vivo
Experimental: Blood samples for pharmacokinetic analysis were collected prior to morning dosing of GSK2256098 on Day 15, and at 1, 1.5, 2, 4, 6, 8 h after the morning dose of GSK2256098. Trametinib was administered immediately after the 1.5-hour pharmacokinetic sample was collected.
For PK analysis of trametinib, blood samples were taken via an indwelling cannula (or by direct venepuncture), collected into a di-potassium ethylenediaminetetraacetic acid (K2-EDTA) tube and immediately placed on water ice. Blood samples stored on wet ice were centrifuged within 1 h of collection at approximately 1500 g for 10 min at 4 °C. Supernatant plasma was transferred to a 3.6 mL Nunc tube and stored at 20 °C before shipment. Samples were shipped frozen on dry ice at agreed timepoints throughout the study to GSK Pharmaceuticals, Upper Merion, PA, USA, for analysis.
Plasma samples were analysed for trametinib using the validated analytical method based on liquid-liquid extraction, followed by high-performance liquid chromatography mass spectrometry (HPLC-MS/MS) analysis using a TurboIonSpray interface and multiple reaction monitoring. The lower limit of quantification (LLQ) for trametinib was 0.25 ng/mL using a 50-mL aliquot of human plasma with a higher limit of quantification (HLQ) of 250 ng/mL. Blood samples were analysed for GSK2256098 using a validated analytical method based on acetonitrile extraction from dried blood spots on the Whatman FTA DBS card, followed by HPLC/MS/MS analysis using a TurboIonSpray interface and multiple reaction monitoring. The LLQ for GSK2256098 was 10 ng/mL using a 3-mm diameter.
GSK2256098 whole-blood and dry blood spot concentration-time data as well as trametinib plasma concentration-time data were analysed by standard noncompartmental methods using Phoenix WinNonlin version 6.3. Calculations of all Pharmacokinetic parameters were based on doses of GSK2256098 and trametinib administered and actual sampling times from the respective dosing.

[7] = design: method as in PMID 22805291; details: Trametinib 2.0 mg monotherapy (n = 13), plasma; cited from earlier work
[8] = human, in vivo; remark: listed apart in the source
Experimental: as §2, §3

[9] = human, oral, GSK2256098 250 mg (n = 10) with trametinib, whole blood, Day 15
[10] = human, oral, GSK2256098 500 mg (n = 21) with trametinib, whole blood, Day 15
[11] = GSK2256098 250 mg (n = 6) with trametinib
[12] = GSK2256098 500 mg (n = 10) with trametinib

CONC(=O)c1ccccc1Nc1cc(Nc2cc(C)nn2C(C)C)ncc1Cl [GSK2256098]
PFS of Merlin-negative versus Merlin-positive mesothelioma patients (mesothelioma): nearly twice
MTD in combination (high GSK2256098/low trametinib MTD, GSK2256098 part): 500 mg BID
MTD in combination (low GSK2256098/high trametinib MTD, GSK2256098 part): 250 mg BID
activity in vitro in Merlin-negative versus Merlin-positive mesothelioma cells [1]: at least 20 times
relation of the most common serious AEs to GSK2256098 [2]: none of these were considered related to GSK2256098
AUC ([3]; human, oral, GSK2256098 250 mg (n = 10) with trametinib, whole blood, Day 15, read-out: AUC(0–τ), Geometric mean (%CV)): 5470 ng·h/mL
Cmax [3, 9]: 1400 ng/mL
Tmax [3, 9]: 2 h
Cmax [3, 10]: 2450 ng/mL
Tmax [3, 10]: 2 h
median time to Cmax (tmax) ([3]; post-dose, across dose groups, with trametinib): ~2 h
exposure of GSK2256098 when co-administered with trametinib ([3]; versus previous monotherapy study): not altered
AUC ([4]; GSK2256098 250 mg (n = 6) with trametinib, read-out: AUC(0–τ), Geometric mean (%CV)): 4980 ng·h/mL
Cmax [4, 11]: 1230 ng/mL
Tmax [4, 11]: 2.8 h
Cmax [4, 12]: 2830 ng/mL
Tmax [4, 12]: 2 h
effect on deacetylation of trametinib by human carboxylesterases [5]: inhibits deacetylation of trametinib

CC(=O)Nc1cccc(-n2c(=O)n(C3CC3)c(=O)c3c(Nc4ccc(I)cc4F)n(C)c(=O)c(C)c32)c1 [trametinib]
Trametinib exposure (Cmax and AUC) with GSK2256098 versus trametinib monotherapy [6]: 2- to 4 fold
median time to Cmax (tmax) [6]: 1.5 to 2.5 h
tmax of trametinib with GSK2256098 co-administration [6]: slightly delayed
MTD in combination (high GSK2256098/low trametinib MTD, trametinib part): 0.375 mg QD
MTD in combination (low GSK2256098/high trametinib MTD, trametinib part): 0.5 mg QD
Cmax, Geometric mean (%CV) [7]: 22.2 (28) ng/mL
tmax, Median (range) [7]: 1.75 (1.0–3.0) h
subjects with an SAE that could be attributed to trametinib [8]: 15%
